Laboratory results from the supplement of paper PMC4380931.
± gives the standard deviation of the averaged measurements.

Legend:
Assay in all cases: relative viability (cell count relative to DMSO-treated control) (fraction of DMSO control); higher = more viable cells / less drug effect
LOXIMVI = conditions: 24 h
Experimental: (§1)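 BRAF V600E/D melanoma cell lines were seeded in 96-well plates, treated in 4 replicates with seven doses (3.16 nM to 3.16 uM) of RAF/MEK inhibitors for 24, 48 or 72 h, and stained with Hoechst 33342 (nuclei) and DEVD-NucView488 caspase-3 substrate. Plates were imaged on an Operetta. Relative viability is the cell count normalised to a DMSO-treated control; apoptosis fraction is the fraction of NucView488-positive nuclei.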

MMACSF = tested on: MMACSF
Experimental: as §1

MZ7MEL = tested on: MZ7MEL
Experimental: as §1

RVH421 = tested on: RVH421
Experimental: as §1

SKMEL28 = tested on: SKMEL28
Experimental: as §1

WM115 = tested on: WM115
Experimental: as §1

WM1552C = tested on: WM1552C
Experimental: as §1

CCCS(=O)(=O)Nc1ccc(F)c(C(=O)c2c[nH]c3ncc(-c4ccc(Cl)cc4)cc23)c1F [Vemurafenib]
LOXIMVI
Conditions | relative viability
0.00316 µM | 0.969 ± 0.058
0.01 µM | 0.94 ± 0.22
0.0316 µM | 0.959 ± 0.17
0.1 µM | 0.96 ± 0.13
0.316 µM | 0.953 ± 0.11
1 µM | 0.95 ± 0.11
3.16 µM | 0.805 ± 0.1

relative viability
Conditions | 0.00316 µM | 0.01 µM | 0.0316 µM | 0.1 µM | 0.316 µM | 1 µM | 3.16 µM
MMACSF, 24 h | 0.923 ± 0.051 | 0.887 ± 0.072 | 0.976 ± 0.022 | 1 ± 0.028 | 0.89 ± 0.14 | 0.9218 ± 0.00054 | 0.905 ± 0.16
MMACSF, 48 h | 0.908 ± 0.064 | 0.923 ± 0.11 | 0.962 ± 0.087 | 1 ± 0.071 | 0.85 ± 0.05 | 0.713 ± 0.06 | 0.604 ± 0.07
MMACSF, 72 h | 0.957 ± 0.018 | 0.941 ± 0.04 | 0.939 ± 0.018 | 0.697 ± 0.026 | 0.56 ± 0.03 | 0.29 ± 0.022 | 0.0882 ± 0.021
MZ7MEL, 24 h | 0.982 ± 0.1 | 1.11 ± 0.24 | 1.08 ± 0.14 | 1.08 ± 0.08 | 1.15 ± 0.19 | 1.1 ± 0.19 | 0.938 ± 0.065
MZ7MEL, 48 h | 1.04 ± 0.094 | 1.09 ± 0.082 | 1.07 ± 0.065 | 1.07 ± 0.075 | 0.955 ± 0.08 | 0.667 ± 0.026 | 0.54 ± 0.059
MZ7MEL, 72 h | 1.29 ± 0.18 | 1.39 ± 0.1 | 1.19 ± 0.3 | 0.871 ± 0.2 | 0.587 ± 0.052 | 0.367 ± 0.054 | 0.349 ± 0.066
RVH421, 24 h | 0.8497 ± 0.0046 | 0.936 ± 0.064 | 0.993 ± 0.11 | 1 ± 0.063 | 1.07 ± 0.075 | 1.04 ± 0.043 | 0.823 ± 0.03
RVH421, 48 h | 1.02 ± 0.13 | 0.907 ± 0.079 | 0.932 ± 0.081 | 0.887 ± 0.023 | 0.778 ± 0.045 | 0.684 ± 0.022 | 0.503 ± 0.045
RVH421, 72 h | 0.957 ± 0.018 | 1.02 ± 0.036 | 0.959 ± 0.093 | 0.909 ± 0.07 | 0.674 ± 0.043 | 0.539 ± 0.044 | 0.452 ± 0.015
SKMEL28, 48 h | 0.828 ± 0.1 | 1.18 ± 0.22 | 1.18 ± 0.28 | 1.07 ± 0.24 | 0.973 ± 0.22 | 0.71 ± 0.15 | 0.542 ± 0.099
SKMEL28, 72 h | 0.955 ± 0.11 | 0.88 ± 0.087 | 0.947 ± 0.13 | 0.922 ± 0.035 | 0.651 ± 0.048 | 0.491 ± 0.041 | 0.39 ± 0.032
WM115, 24 h | 1.17 ± 0.16 | 1.2 ± 0.23 | 1.22 ± 0.33 | 1.18 ± 0.35 | 1.17 ± 0.39 | 1.22 ± 0.32 | 1.24 ± 0.29
WM115, 48 h | 1.04 ± 0.48 | 1.24 ± 0.51 | 1.24 ± 0.32 | 1.45 ± 0.31 | 1.73 ± 0.29 | 1.31 ± 0.33 | 0.884 ± 0.34
WM115, 72 h | 0.953 ± 0.064 | 1.04 ± 0.038 | 1.05 ± 0.024 | 1.07 ± 0.028 | 0.855 ± 0.041 | 0.571 ± 0.037 | 0.27 ± 0.049
WM1552C, 24 h | 0.92 ± 0.085 | 0.969 ± 0.039 | 0.912 ± 0.045 | 1.06 ± 0.068 | 1.03 ± 0.026 | 0.987 ± 0.024 | 0.875 ± 0.053
WM1552C, 48 h | 0.9247 ± 0.008 | 1 ± 0.044 | 1.01 ± 0.061 | 1 ± 0.044 | 1.06 ± 0.075 | 0.886 ± 0.012 | 0.719 ± 0.041
WM1552C, 72 h | 1.06 ± 0.1 | 1.14 ± 0.079 | 1.17 ± 0.12 | 1.2 ± 0.13 | 1.06 ± 0.1 | 0.671 ± 0.058 | 0.42 ± 0.039

Cc1ccc(NC(=O)c2cccc(C(C)(C)C#N)c2)cc1Nc1ccc2ncn(C)c(=O)c2c1 [AZ628]
LOXIMVI
Conditions | relative viability
0.00316 µM | 0.963 ± 0.12
0.01 µM | 0.949 ± 0.21
0.0316 µM | 0.956 ± 0.16
0.1 µM | 0.942 ± 0.14
0.316 µM | 0.86 ± 0.13
1 µM | 0.862 ± 0.11
3.16 µM | 0.822 ± 0.11

relative viability
Conditions | 0.00316 µM | 0.01 µM | 0.0316 µM | 0.1 µM | 0.316 µM | 1 µM | 3.16 µM
MMACSF, 24 h | 1.059 ± 0.0044 | 0.978 ± 0.013 | 1 ± 0.041 | 0.982 ± 0.045 | 0.988 ± 0.013 | 1 ± 0.017 | 1.034 ± 0.0047
MMACSF, 48 h | 0.938 ± 0.077 | 1.02 ± 0.028 | 0.913 ± 0.04 | 0.771 ± 0.062 | 0.737 ± 0.059 | 0.56 ± 0.19 | 0.517 ± 0.039
MMACSF, 72 h | 0.917 ± 0.094 | 0.833 ± 0.044 | 0.641 ± 0.023 | 0.519 ± 0.014 | 0.367 ± 0.026 | 0.223 ± 0.014 | 0.141 ± 0.0092
MZ7MEL, 24 h | 1.02 ± 0.051 | 1.02 ± 0.19 | 1.05 ± 0.23 | 1.19 ± 0.13 | 1.12 ± 0.12 | 0.945 ± 0.082 | 0.878 ± 0.19
MZ7MEL, 48 h | 1.03 ± 0.16 | 1.04 ± 0.12 | 1 ± 0.072 | 0.726 ± 0.031 | 0.549 ± 0.044 | 0.435 ± 0.042 | 0.465 ± 0.048
MZ7MEL, 72 h | 1.2 ± 0.13 | 1.11 ± 0.13 | 0.586 ± 0.092 | 0.336 ± 0.021 | 0.33 ± 0.03 | 0.356 ± 0.058 | 0.327 ± 0.039
RVH421, 24 h | 0.929 ± 0.083 | 0.9636 ± 0.0082 | 1.05 ± 0.059 | 1.06 ± 0.045 | 1.02 ± 0.032 | 0.993 ± 0.017 | 0.908 ± 0.034
RVH421, 48 h | 1.06 ± 0.082 | 0.944 ± 0.028 | 0.81 ± 0.054 | 0.666 ± 0.089 | 0.696 ± 0.054 | 0.65 ± 0.035 | 0.544 ± 0.024
RVH421, 72 h | 0.956 ± 0.045 | 0.915 ± 0.086 | 0.741 ± 0.096 | 0.58 ± 0.06 | 0.537 ± 0.057 | 0.47 ± 0.055 | 0.412 ± 0.072
SKMEL28, 48 h | 0.879 ± 0.14 | 1.4 ± 0.043 | 1.44 ± 0.14 | 1.16 ± 0.13 | 0.947 ± 0.094 | 0.896 ± 0.02 | 0.614 ± 0.014
SKMEL28, 72 h | 1.13 ± 0.088 | 1.01 ± 0.057 | 0.791 ± 0.047 | 0.526 ± 0.034 | 0.507 ± 0.054 | 0.489 ± 0.023 | 0.442 ± 0.044
WM115, 24 h | 1.19 ± 0.13 | 1.47 ± 0.33 | 1.51 ± 0.39 | 1.53 ± 0.37 | 1.37 ± 0.52 | 0.87 ± 0.18 | 0.946 ± 0.31
WM115, 48 h | 1.06 ± 0.49 | 1.19 ± 0.42 | 1.47 ± 0.23 | 1.31 ± 0.15 | 1.11 ± 0.24 | 0.658 ± 0.13 | 0.424 ± 0.078
WM115, 72 h | 1.03 ± 0.06 | 1.04 ± 0.068 | 0.801 ± 0.029 | 0.594 ± 0.019 | 0.281 ± 0.013 | 0.172 ± 0.053 | 0.0874 ± 0.028
WM1552C, 24 h | 0.959 ± 0.015 | 0.982 ± 0.019 | 0.99 ± 0.044 | 1.01 ± 0.026 | 0.974 ± 0.0076 | 0.996 ± 0.0037 | 0.928 ± 0.045
WM1552C, 48 h | 1.01 ± 0.017 | 1 ± 0.025 | 0.964 ± 0.057 | 0.772 ± 0.11 | 0.665 ± 0.14 | 0.647 ± 0.038 | 0.644 ± 0.033
WM1552C, 72 h | 1.03 ± 0.059 | 1.11 ± 0.09 | 0.948 ± 0.25 | 0.736 ± 0.073 | 0.555 ± 0.045 | 0.484 ± 0.041 | 0.442 ± 0.036
